The values below come from US7531655B2, “Large conductance calcium-activated K channel opener” (Mitsubishi Tanabe Pharma Corporation, priority 2002, dated 2009).

Experiment [1] has as its system rhythmic bladder contractions induced by substance P. The experiment can be described thus: Inhibitory effect on the rhythmic bladder contractions induced by substance P in anesthetized rats. Type of experiment: in vivo, rat. Particulars: 0.25 mg/kg intravenous; time during which frequency of rhythmic contraction was completely inhibited; urethane-anesthetized Sprague-Dawley female rats. The procedure:
Inhibitory Effect on the Rhythmic Bladder Contractions Induced by Substance P in Anesthetized Rats For the experiments, Sprague-Dawley female rats (9 to 12 weeks old) weighing between 200 to 300 g were used. After urethane anesthetization (subcutaneously administered with a dose of 1.2 g/kg), cannulae were placed in both right and left femoral veins. One intravenous catheter was used for administration of compounds, and the other was for the substance P (0.33 μg/kg/min) infusion. We also cannulated into ureter to pass urine. Polyethylene catheters were inserted into carotid artery for continuous monitoring of arterial blood pressure and heart rate. For continuous infusion, transurethral bladder catheter was inserted into the bladder through the urethra and tied in place by a ligature around the urethral orifice. One end of the catheter was attached to a pressure transducer in order to measure intravesical pressure. The other end of the catheter was used for infusion of saline into the bladder. After stabilization of blood pressure and heart rate and after the bladder was emptied, cystometry was performed by filling the bladder slowly with about 0.6 ml of saline. After about 10 minutes, intravenous infusion of substance P (0.33 μg/kg/min) was started for stabilization of the micturition reflex. […]

Experiment [2] has as its system isolated rabbit urinary bladder. The experiment in a line: Relaxation effect on potassium-induced contraction of isolated rabbit urinary bladder. Type of experiment: cell-based. Particulars: Oryctolagus cuniculus, read-out: IC50 value (50% relaxation concentration). The procedure:
Relaxation Effect on Potassium-Induced Contraction of Isolated Rabbit Urinary Bladder
Urinary bladder was isolated from Male NZW rabbits (body weight: 2.0-3.5 kg) and immersed in ice-cold Krebs-bicarbonate solution (in mM: 118 NaCl, 4.7 KCl, 2.55 CaCl2, 1.18 MgSO4, 1.18 KH2PO4, 24.88 NaHCO3 and 11.1 glucose). The urinary bladder was cut into longitudinal strips (5 mm length 3-4 mm width) after mucosal layer was removed.
Preparations were mounted in organ baths containing 10 ml of Krebs solution maintained at 37° C. and gassed with 95% O2/5% CO2. Accordingly, preparations were stretched with an initial tension of 2.0±1.0 g, and changes in isometric tension were measured by force-displacement transducer. The preparations were pre-contracted by changing organ-bath solution into high-K^+ (30 mM) Krebs solution (in mM: 118 NaCl, […], 2.55 CaCl2, 1.18 MgSO4, 1.18 KH2PO4, 24.88 NaHCO3 and 11.1 glucose).
After stable tension was obtained, compounds were added into organ baths cumulatively (10^−8 M-10^−4 M). The effects of compounds were expressed as a percentage of the maximum relaxation produced by 10^−4 M papaverine as 100%. 50% relaxation concentration (IC50) was calculated and IC50 value range (μM) of compounds of the present invention was shown in the following Table 1 with a rank of A, B or C. These ranges are as mentioned below. • 3 μM≧C>1 μM≧B>0.5 μM≧A

`O=C([O-])Cc1oc(-c2ccccc2)cc1-c1ccc(Cl)s1.[Na+]` [2 (Compound 6)]: in experiment [1], the 100% inhibiting time came out at 13.1 min. Moreover, the IC50 in experiment [2] was below 0.5 µM.

Take `O=C([O-])Cc1sc(-c2ccccc2)cc1-c1ccc(Cl)s1.[Na+]` [3 (Compound 6)]: the 100% inhibiting time in experiment [1] is recorded as 27.1 min. In addition, the IC50 in experiment [2] was in the range of 0.5 to 1 µM.
